Consider 37 molecules from patent publication US5985878A, “Angiogenesis inhibiting pyridazinamines” (Janssen Pharmaceuticals, N.V., priority 1996, dated 1999).

Experiment [1] deals with rat aortic ring. Put plainly: Angiogenesis inhibitory activity in vitro, rat aortic ring model (microvessel formation). Type of experiment: cell-based. The settings on record: 192 h, microvessel area following eight days in culture. The procedure: Angiogenosis inhibitory activity was measured in vitro using the rat aortic ring model of angiogenesis as described by Nicosia, R. F. and Ottinetti in "Laboratory Investigation", vol. 63, p. 115, 1990. The ability of compounds to inhibit microvessel formation was compared to velicle-treatedcontrol rings.

Experiment [2] relates to angiogenesis. Put plainly: In vivo angiogenesis inhibitory activity, Matrigel model. Details: species or system warm-blooded animal. The settings on record: po, administered orally. The procedure:
The in vivo angiogenesis inhibitory activity was measured using the Matrigel model, as described in U.S. Pat. No. 5,382,514. Briefly, a liquid, containing extracts of murine basement membrane and an angiogenic growth factor (e.g. VEGF, bFGF, aFGF), was injected in a warm-blooded animal where it fonns a gel matrix. After a period of time, the gel is recovered from the anmimal and angiogenesis is quantitated. The test compounds were administered orally at a dose of 0.1 mg/kg.

On to `Cc1nsc(-c2ccc(N3CCC(N4CCN(c5cc(C(F)(F)F)cc(C(F)(F)F)c5)CC4)CC3)nn2)n1` [Compound 161], for which, in experiment [1], the IC50 (in general, the concentration that inhibits the measured activity by half) is below 0.1 nM.

The molecule `Cc1nsc(-c2ccc(N3CCC(N4CCN(c5cc(Cl)cc(Cl)c5)CC4)CC3)nn2)n1` [Compound 160] showed an IC50 in experiment [1] of 0.2 nM.

For the molecule `Cc1nsc(-c2ccc(N3CCC(c4cccc(C(F)(F)F)c4)C3)nn2)n1` (stereo not shown) [Compound 30], the inhibition in vivo (usually how much of the control response was suppressed) at 0.1 mg/kg in experiment [2] was above 70%.

In the case of `Cc1nsc(-c2ccc(N3CCN(c4cccc(Cl)c4)C(C)C3)nn2)n1` (stereo not shown) [Compound 13], in experiment [1], the IC50 came out at 0.8 nM.

In experiment [1], `Cc1nsc(-c2ccc(N3CC=C(c4cccc(C(F)(F)F)c4)CC3)nn2)n1` [Compound 66] registered a half-maximal inhibitory concentration (IC50) of 0.3 nM.

Turning to `Cc1nsc(-c2ccc(N3CCN(c4cccc(Cl)c4Cl)CC3)nn2)n1` [Compound 24], the concentration for half-maximal inhibition (IC50) in experiment [1] was 0.3 nM.

Molecule `Cc1nsc(-c2ccc(N3CCC(Cc4cccc(C(F)(F)F)c4)CC3)nn2)n1` [Compound 132] returned a half-inhibitory concentration (IC50) in experiment [1] of 0.2 nM.

Consider `Cc1nsc(-c2ccc(N3CCN(c4cc(Cl)ccc4Cl)CC3)nn2)n1` [Compound 27], for which the concentration for half-maximal inhibition (IC50) in experiment [1] came to 0.2 nM.

Molecule `Cc1nsc(-c2ccc(N3CCC(Nc4cccc(C(F)(F)F)c4)C3)nn2)n1` (stereo not shown) [Compound 169] returned a 50% inhibitory concentration (IC50) in experiment [1] of 0.8 nM.

The molecule `Cc1nsc(-c2ccc(N3CCN(c4ccc(Br)cc4[N+](=O)[O-])CC3)nn2)n1` [Compound 85] came in with an IC50 in experiment [1] below 0.1 nM.

With `Cc1nsc(-c2ccc(N3CCCC(c4cccc(C(F)(F)F)c4)CC3)nn2)n1` (stereo not shown) [Compound 32], the IC50 in experiment [1] was 0.9 nM.

`Cc1nsc(-c2ccc(N3CCC(Sc4cccc(Cl)c4)CC3)nn2)n1` [Compound 139] showed an IC50 in experiment [1] of 0.5 nM.

In turn, `Cc1nsc(-c2ccc(N3CCN(c4cccc(Cl)c4)CC3)nn2)n1` [Compound 2, 3-[4-(3-chlorophenyl)-1-piperazinyl]-6-(3-methyl-1,2,4-thiadiazol-5-yl)pyridazine] yielded a half-inhibitory concentration (IC50) in experiment [1] of 0.6 nM. The inhibition in vivo at 0.1 mg/kg in experiment [2] was above 70%.

Regarding `Cc1nsc(-c2ccc(N3CCN(c4cccc(Br)c4)CC3)nn2)n1` [Compound 72], in experiment [1], 0.5 nM corresponded to half-maximal inhibition (IC50).

In turn, `Cc1nsc(-c2ccc(N3CCC(C(C#N)c4cccc(Cl)c4)CC3)nn2)n1` (stereo not shown) [Compound 138] came in with a half-inhibitory concentration (IC50) in experiment [1] of 0.2 nM. This molecule also showed an inhibition in vivo at 0.1 mg/kg in experiment [2] above 70%.

In experiment [1], `Cc1nsc(-c2ccc(N3CCC(C(=O)c4cccc(Cl)c4)CC3)nn2)n1` [Compound 135] had an IC50 of 0.5 nM.

Turning to `Cc1nsc(-c2ccc(N3CCN(c4cc(Cl)c(Cl)cc4Cl)CC3)nn2)n1` [Compound 82], the 50% inhibitory concentration (IC50) in experiment [1] amounted to 0.8 nM. Further, the inhibition in vivo at 0.1 mg/kg in experiment [2] is above 70%.

Consider `Cc1nsc(-c2ccc(N3CCC(COc4cccc(Cl)c4)CC3)nn2)n1` [Compound 56], for which half-maximal inhibition in experiment [1] (IC50) was put at 0.9 nM.

As to `COc1ccc(Cl)c(N2CCN(c3ccc(-c4nc(C)ns4)nn3)CC2)c1` [Compound 75], half-maximal inhibition in experiment [1] (IC50) was put at 0.6 nM. The molecule also had an inhibition in vivo at 0.1 mg/kg in experiment [2] above 70%.

`Cc1nsc(-c2ccc(N3CC[C@@H](c4cccc(C(F)(F)F)c4)[C@@H](C)C3)nn2)n1` (relative stereo) [Compound 108] returned a half-inhibitory concentration (IC50) in experiment [1] of 0.2 nM.

Take `Cc1nsc(-c2ccc(N3CCC(OC(c4ccccc4)c4ccccc4)CC3)nn2)n1` [Compound 54]: the inhibition in vivo at 0.1 mg/kg in experiment [2] is above 70%.

Molecule `Cc1nsc(-c2ccc(N3CCC(OCc4cccc(C(F)(F)F)c4)CC3)nn2)n1` [Compound 48] returned a half-inhibitory concentration (IC50) in experiment [1] of 0.5 nM.

`Cc1nsc(-c2ccc(N3CCC(c4cc(C(F)(F)F)cc(C(F)(F)F)c4)CC3)nn2)n1` [Compound 111] yielded an IC50 in experiment [1] of 0.2 nM.

In experiment [1], `Cc1nsc(-c2ccc(N3C4CCC3CC(c3cccc(C(F)(F)F)c3)C4)nn2)n1` (stereo not shown) [Compound 177] yielded a concentration for half-maximal inhibition (IC50) of 0.7 nM. This molecule gave an inhibition in vivo at 0.1 mg/kg in experiment [2] above 70%.

For `Cc1nsc(-c2ccc(N3CCN(c4cc(Cl)cc(Cl)c4)CC3)nn2)n1` [Compound 23], half-maximal inhibition in experiment [1] (IC50) required 0.05 nM. That is a picomolar value.

The molecule `Cc1nsc(-c2ccc(N3CCC(N4CCN(c5cccc(C(F)(F)F)c5)CC4)CC3)nn2)n1` [Compound 53, 3-(3-methyl-1,2,4-thiadiazol-5-yl)-6-[4-[4-[3-(trifluoromethyl)phenyl]-1-piperazinyl]-1-piperidinyl]pyridazine] came in with an IC50 in experiment [1] of 0.3 nM. Further, in experiment [2], the inhibition in vivo at 0.1 mg/kg was above 70%.

Consider `Cc1nsc(-c2ccc(N3CCC(C(=O)c4cccc(C(F)(F)F)c4)CC3)nn2)n1` [Compound 130], for which the midpoint of inhibition in experiment [1], the IC50, lay at 0.3 nM.

For the molecule `Cc1nsc(-c2ccc(N3CCC(N(C)c4cccc(C(F)(F)F)c4)CC3)nn2)n1` [Compound 142], the half-inhibitory concentration (IC50) in experiment [1] was found to be 0.3 nM.

Take `Cc1nsc(-c2ccc(N3CCN(c4ccccc4C(F)(F)F)CC3)nn2)n1` [Compound 76]: the IC50 in experiment [1] came out at 0.2 nM. This IC50 and that of the molecule before are within 1.5-fold of each other.

In turn, `Cc1nsc(-c2ccc(N3CCC(C(O)c4cccc(C(F)(F)F)c4)CC3)nn2)n1` (stereo not shown) [Compound 134] registered an IC50 in experiment [1] of 0.6 nM. For the same molecule, the inhibition in vivo at 0.1 mg/kg in experiment [2] is above 70%.

Consider `Cc1nsc(-c2ccc(N3CCC(N(C)Cc4cccc(C(F)(F)F)c4)CC3)nn2)n1` [Compound 137], for which half-maximal inhibition in experiment [1] (IC50) required 0.5 nM.

With `Cc1nsc(-c2ccc(N3CCC(Nc4cccc(C(F)(F)F)c4)CC3)nn2)n1` [Compound 47], the inhibition in vivo at 0.1 mg/kg in experiment [2] was above 70%.

`Cc1nsc(-c2ccc(N3CCN(C4CCN(c5cccc(C(F)(F)F)c5)CC4)CC3)nn2)n1` [Compound 44] returned an IC50 in experiment [1] of 0.7 nM.

`Cc1nsc(-c2ccc(N3CCN(c4cccc(C(F)(F)F)c4)CC3)nn2)n1` [Compound 1, 3-(3-methyl-1,2,4-thiadiazol-5-yl)-6-[4-[3-(trifluoromethyl)phenyl]-1-piperazinyl]pyridazine] came in with a half-inhibitory concentration (IC50) in experiment [1] of 0.3 nM.

With `Cc1nsc(-c2ccc(N3CCN(c4ccc(Br)c(C(F)(F)F)c4)CC3)nn2)n1` [Compound 88, 3-[4-[4-bromo-3-(trifluoromethyl)phenyl]-1-piperazinyl]-6-(3-methyl-1,2,4-thiadiazol-5-yl)pyridazine], the inhibition in vivo at 0.1 mg/kg in experiment [2] was above 70%.

In the case of `Cc1nsc(-c2ccc(N3CCC(c4cccc(C(F)(F)F)c4)CC3)nn2)n1` [Compound 31, 3-(3-methyl-1,2,4-thiadiazol-5-yl)-6-[4-[3-(trifluoromethyl)phenyl]-1-piperidinyl]pyridazine], in experiment [1], it took 0.052 nM to reach half-maximal inhibition (IC50). The inhibition in vivo at 0.1 mg/kg in experiment [2] is above 70%.

Consider `Cc1nsc(-c2ccc(N3CCN(c4cc(C(F)(F)F)cc(C(F)(F)F)c4)CC3)nn2)n1` [Compound 74], for which, in experiment [1], the half-inhibitory concentration (IC50) stood at 0.05 nM. In experiment [2], this molecule returned an inhibition in vivo at 0.1 mg/kg above 70%.
